Source: patent US10597388B2, “Pyridazinone herbicides” (FMC CORPORATION, priority 2014, dated 2020)

Legend:
Format in all cases: in vivo
[1] = tested on: goosegrass (Eleusine indica); experiment: Test E greenhouse herbicide test, pre- and postemergence; conditions: Preemergence
How it was run: (§1)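 Pre- and postemergence sprays, same solvent–surfactant formulation. Substrate: silt loam (pre), peat-based mix (post, 1–4 leaf, 2–18 cm). Readout: visual control rating 0–100 against controls at 14–21 d.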

[2] = tested on: arrowleaf sida (Sida rhombifolia); experiment: as above
How it was run: as §1

[3] = tested on: nightshade (eastern black nightshade, Solanum ptycanthum); experiment: as above; conditions: Preemergence
How it was run: as §1

[4] = tested on: corn (Zea mays); experiment: as above
How it was run: as §1

[5] = tested on: field bindweed (Convolvulus arvensis); experiment: as above
How it was run: as §1

[6] = tested on: surinam grass (Brachiaria decumbens); experiment: as above; conditions: Preemergence
How it was run: as §1

[7] = tested on: soybean (Glycine max); experiment: as above
How it was run: as §1

[8] = tested on: horseweed (Conyza canadensis); experiment: as above; conditions: Postemergence
How it was run: as §1

[9] = tested on: pigweed, palmer (palmer pigweed, Amaranthus palmeri); experiment: as above
How it was run: as §1

[10] = tested on: momingglory (Ipomoea coccinea); experiment: as above; conditions: Preemergence
How it was run: as §1

[11] = tested on: buckwheat, wild (wild buckwheat, Polygonum convolvulus); experiment: Test D controlled growth environment herbicide test, pre- and postemergence; conditions: for Buckwheat, Wild plant response rating / Plant response rating (scale of 0 to 100), Buckwheat, Wild: 31 g ai/ha
From the text: Seeds of plant species selected from bluegrass (annual bluegrass, Poa annua), blackgrass (Alopecurus myosuroides), Canada thistle (Cirsium arvense), canarygrass (Phalaris minor), chickweed (common chickweed, Stellaria media), geranium, cutleaf (cutleaf geranium, Geranium dissectum), galium (catchweed bedstraw, Galium aparine), bromegrass, downy (downy bromegrass, Bromus tectorum), field poppy (Papaver rhoeas), field violet (Viola arvensis), foxtail, green (green foxtail, Setaria viridis), deadnettle (henbit deadnettle, Lamium amplexicaule), ryegrass, Italian (Italian ryegrass, Lolium multiflorum), kochia (Kochia scoparia), lambsquarters (Chenopodium album), oilseed rape (Brassica napus), pigweed (Amaranthus retroflexus), chamomile (scentless chamomile, Matricaria inodora), Russian thistle (Salsola kali), speedwell (bird's-eye speedwell, Veronica persica), barley, spring (spring barley, Hordeum vulgare), wheat, spring (spring wheat, Triticum aestivum), buckwheat, wild (wild buckwheat, Polygonum convolvulus), mustard, wild (wild mustard, Sinapis arvensis), oat, wild (wild oat, Avena fatua), radish, wild (wild radish, Raphanus raphanistrum), windgrass (Apera spica-venti), barley, winter (winter barley, Hordeum vulgare), and wheat, winter (winter wheat, Triticum aestivum) were planted into a silt loam soil and treated preemergence with test chemicals formulated in a non-phytotoxic solvent mixture which included a surfactant.
At the same time, these species were planted in pots containing Redi-Earth® planting medium (Scotts Company, 14111 Scottslawn Road, Marysville, Ohio 43041) comprising spaghnum peat moss, vermiculite, wetting agent and starter nutrients and treated with postemergence applications of the test chemicals formulated in the same manner. Plants ranged in height from 2 to 18 cm (1- to 4-leaf stage). Treated plants and controls were maintained in a controlled growth environment for 14 to 21 d after which time all species were compared to controls and visually evaluated. Plant response ratings, summarized in Table D, are based on a scale of 0 to 100 where 0 is no effect and 100 is complete control. A dash (-) response means no test result.

[12] = 62 g ai/ha, scale 0 to 100 (0 no effect, 100 complete control)
[13] = 125 g ai/ha, scale 0 to 100 (0 no effect, 100 complete control)
[14] = 31 g ai/ha, scale 0 to 100, 0 no effect, 100 complete control
[15] = 250 g ai/ha, visual, scale 0 no effect to 100 complete control
[16] = 62 g ai/ha, Postemergence, scale 0 to 100 (0 no effect, 100 complete control)
[17] = 62 g ai/ha, Preemergence, scale 0 to 100 (0 no effect, 100 complete control)
[18] = 125 g ai/ha, Postemergence, scale 0 to 100 (0 no effect, 100 complete control)
[19] = 125 g ai/ha, Preemergence, scale 0 to 100 (0 no effect, 100 complete control)
[20] = 250 g ai/ha, Postemergence, scale 0 to 100 (0 no effect, 100 complete control)
[21] = Postemergence, 31 g ai/ha, visual, scale 0 no effect to 100 complete control
[22] = Preemergence, 31 g ai/ha, scale 0 to 100, 0 no effect, 100 complete control
[23] = Preemergence, 250 g ai/ha, visual, scale 0 no effect to 100 complete control
[24] = 250 g ai/ha, scale 0 to 100 (0 no effect, 100 complete control)
[25] = 31 g ai/ha, visual, scale 0 no effect to 100 complete control
[26] = Postemergence, scale 0 to 100 (0 no effect, 100 complete control)
[27] = Postemergence, 125 g ai/ha, visual rating on scale 0 (no effect) to 100 (complete control), 14 to 21 d
[28] = Postemergence, 250 g ai/ha, scale 0 to 100 (0 no effect, 100 complete control)
[29] = Preemergence, 62 g ai/ha, scale 0 to 100 (0 no effect, 100 complete control)
[30] = Preemergence, 125 g ai/ha, scale 0 to 100 (0 no effect, 100 complete control)
[31] = Preemergence, 250 g ai/ha, scale 0 to 100 (0 no effect, 100 complete control)
[32] = postemergence, 62 g ai/ha, scale 0 to 100, 0 no effect, 100 complete control

## CCOC(=O)Oc1c(C)nn(C)c(=O)c1-c1c(C)sc2c(C)cc(C)cc12 [Compound 83]
[1]; [12]
  Plant response rating, Goosegrass: 0
[1]; [13]
  Plant response rating, Goosegrass: 5
[1]; [14]
  Plant response rating, Goosegrass: 0
[1]; [15]
  Plant response rating, Goosegrass: 25
[2]; [16]
  Plant response rating, Arrowleaf Sida: 50
[2]; [17]
  Plant response rating, Arrowleaf Sida: 25
[2]; [18]
  Plant response rating, Arrowleaf Sida: 60
[2]; [19]
  Plant response rating, Arrowleaf Sida: 35
[2]; [20]
  Plant response rating, Arrowleaf Sida: 60
[2]; [21]
  Plant response rating, Arrowleaf Sida: 50
[2]; [22]
  Plant response rating, Arrowleaf Sida: 15
[2]; [23]
  Plant response rating, Arrowleaf Sida: 65
[3]; [12]
  Plant response rating, Nightshade: 50
[3]; [13]
  Plant response rating, Nightshade: 100
[3]; [14]
  Plant response rating, Nightshade: 35
[3]; [15]
  Plant response rating, Nightshade: 100
[4]; [16]
  Plant response rating, Corn: 0
[4]; [17]
  Plant response rating, Corn: 0
[4]; [18]
  Plant response rating, Corn: 0
[4]; [19]
  Plant response rating, Corn: 0
[4]; [20]
  Plant response rating, Corn: 10
[4]; [21]
  Plant response rating, Corn: 0
[4]; [22]
  Plant response rating, Corn: 0
[4]; [23]
  Plant response rating, Corn: 0
[5]; [16]
  Plant response rating, Field Bindweed: 70
[5]; [17]
  Plant response rating, Field Bindweed: 5
[5]; [18]
  Plant response rating, Field Bindweed: 70
[5]; [19]
  Plant response rating, Field Bindweed: 35
[5]; [20]
  Plant response rating, Field Bindweed: 75
[5]; [21]
  Plant response rating, Field Bindweed: 60
[5]; [22]
  Plant response rating, Field Bindweed: 0
[5]; [23]
  Plant response rating, Field Bindweed: 100
[6]; [12]
  Plant response rating, Surinam Grass: 60
[6]; [13]
  Plant response rating, Surinam Grass: 85
[6]; [14]
  Plant response rating, Surinam Grass: 65
[6]; [15]
  Plant response rating, Surinam Grass: 95
[7]; [17]
  Plant response rating, Soybean: 0
[7]; [18]
  Plant response rating, Soybean: 0
[7]; [19]
  Plant response rating, Soybean: 0
[7]; [20]
  Plant response rating, Soybean: 15
[7]; [21]
  Plant response rating, Soybean: 0
[7]; [22]
  Plant response rating, Soybean: 0
[7]; [23]
  Plant response rating, Soybean: 0
[8]; [12]
  Plant response rating, Horseweed: 80
[8]; [13]
  Plant response rating, Horseweed: 85
[8]; [24]
  Plant response rating, Horseweed: 90
[8]; [25]
  Plant response rating, Horseweed: 75
[9]; [16]
  Plant response rating, Pigweed, Palmer: 40
[9]; [17]
  Plant response rating, Pigweed, Palmer: 20
[9]; [18]
  Plant response rating, Pigweed, Palmer: 50
[9]; [19]
  Plant response rating, Pigweed, Palmer: 50
[9]; [20]
  Plant response rating, Pigweed, Palmer: 60
[9]; [21]
  Plant response rating, Pigweed, Palmer: 40
[9]; [22]
  Plant response rating, Pigweed, Palmer: 0
[9]; [23]
  Plant response rating, Pigweed, Palmer: 80
[10]; [12]
  Plant response rating, Morningglory: 20
[10]; [13]
  Plant response rating, Morningglory: 95
[10]; [14]
  Plant response rating, Morningglory: 25
[10]; [15]
  Plant response rating, Morningglory: 100
[11]; [26]
  Buckwheat, Wild plant response rating: 100
[11]; [27]
  Plant response rating, Buckwheat, Wild: 100
[11]; [28]
  Plant response rating, Buckwheat, Wild: 100
[11]; Preemergence
  Plant response rating (scale of 0 to 100), Buckwheat, Wild: 0
[11]; [29]
  Plant response rating, Buckwheat, Wild: 0
[11]; [30]
  Plant response rating, Buckwheat, Wild: 0
[11]; [31]
  Plant response rating, Buckwheat, Wild: 25
[11]; [32]
  Plant response rating, Buckwheat, Wild: 100

## Cc1cc(C)c2sc(C)c(-c3c(OC(=O)OCCCl)c(C)nn(C)c3=O)c2c1 [Compound 85]
[1]; [12]
  Plant response rating, Goosegrass: 5
[1]; [13]
  Plant response rating, Goosegrass: 5
[1]; [14]
  Plant response rating, Goosegrass: 5
[1]; [15]
  Plant response rating, Goosegrass: 20
[2]; [16]
  Plant response rating, Arrowleaf Sida: 50
[2]; [17]
  Plant response rating, Arrowleaf Sida: 0
[2]; [18]
  Plant response rating, Arrowleaf Sida: 50
[2]; [19]
  Plant response rating, Arrowleaf Sida: 50
[2]; [20]
  Plant response rating, Arrowleaf Sida: 50
[2]; [21]
  Plant response rating, Arrowleaf Sida: 40
[2]; [22]
  Plant response rating, Arrowleaf Sida: 0
[2]; [23]
  Plant response rating, Arrowleaf Sida: 70
[3]; [12]
  Plant response rating, Nightshade: 95
[3]; [13]
  Plant response rating, Nightshade: 100
[3]; [14]
  Plant response rating, Nightshade: 95
[3]; [15]
  Plant response rating, Nightshade: 100
[4]; [16]
  Plant response rating, Corn: 0
[4]; [17]
  Plant response rating, Corn: 0
[4]; [18]
  Plant response rating, Corn: 0
[4]; [19]
  Plant response rating, Corn: 0
[4]; [20]
  Plant response rating, Corn: 5
[4]; [21]
  Plant response rating, Corn: 0
[4]; [22]
  Plant response rating, Corn: 0
[4]; [23]
  Plant response rating, Corn: 0
[5]; [16]
  Plant response rating, Field Bindweed: 50
[5]; [17]
  Plant response rating, Field Bindweed: 5
[5]; [18]
  Plant response rating, Field Bindweed: 60
[5]; [19]
  Plant response rating, Field Bindweed: 20
[5]; [20]
  Plant response rating, Field Bindweed: 90
[5]; [21]
  Plant response rating, Field Bindweed: 50
[5]; [23]
  Plant response rating, Field Bindweed: 95
[6]; [12]
  Plant response rating, Surinam Grass: 70
[6]; [13]
  Plant response rating, Surinam Grass: 70
[6]; [14]
  Plant response rating, Surinam Grass: 60
[6]; [15]
  Plant response rating, Surinam Grass: 90
[7]; [17]
  Plant response rating, Soybean: 0
[7]; [18]
  Plant response rating, Soybean: 5
[7]; [19]
  Plant response rating, Soybean: 0
[7]; [20]
  Plant response rating, Soybean: 15
[7]; [21]
  Plant response rating, Soybean: 0
[7]; [22]
  Plant response rating, Soybean: 0
[7]; [23]
  Plant response rating, Soybean: 0
[8]; [12]
  Plant response rating, Horseweed: 85
[8]; [13]
  Plant response rating, Horseweed: 85
[8]; [24]
  Plant response rating, Horseweed: 90
[8]; [25]
  Plant response rating, Horseweed: 60
[9]; [16]
  Plant response rating, Pigweed, Palmer: 80
[9]; [17]
  Plant response rating, Pigweed, Palmer: 30
[9]; [18]
  Plant response rating, Pigweed, Palmer: 80
[9]; [19]
  Plant response rating, Pigweed, Palmer: 50
[9]; [20]
  Plant response rating, Pigweed, Palmer: 80
[9]; [21]
  Plant response rating, Pigweed, Palmer: 65
[9]; [22]
  Plant response rating, Pigweed, Palmer: 25
[9]; [23]
  Plant response rating, Pigweed, Palmer: 90
[10]; [12]
  Plant response rating, Morningglory: 30
[10]; [13]
  Plant response rating, Morningglory: 50
[10]; [14]
  Plant response rating, Morningglory: 25
[10]; [15]
  Plant response rating, Morningglory: 100
[11]; [26]
  Buckwheat, Wild plant response rating: 95
[11]; [27]
  Plant response rating, Buckwheat, Wild: 100
[11]; [28]
  Plant response rating, Buckwheat, Wild: 100
[11]; Preemergence
  Plant response rating (scale of 0 to 100), Buckwheat, Wild: 20
[11]; [29]
  Plant response rating, Buckwheat, Wild: 65
[11]; [30]
  Plant response rating, Buckwheat, Wild: 80
[11]; [31]
  Plant response rating, Buckwheat, Wild: 100
[11]; [32]
  Plant response rating, Buckwheat, Wild: 100
